Results from US10793591B2, “Substituted nucleosides, nucleotides and analogs thereof” (priority 2012, dated 2020).

tested on: mitochondrial protein synthesis (COX-I relative to SDH-A) in HepG2 cells; test: not given; details: not given

Compound	inhibition of mitochondrial protein synthesis
COc1nc(N)nc2c1ncn2[C@@H]1O[C@H](COP(=O)(N[C@@H](C)C(=O)OCC(C)(C)C)Oc2cccc3ccccc23)[C@@H](O)[C@@]1(C)O (stereo partly drawn) [INX-08189/BMS-986094]	strongly inhibit mitochondrial protein synthesis
Cc1cn([C@H]2C=C[C@@H](CO)O2)c(=O)[nH]c1=O [d4T]	not to inhibit mitochondrial protein synthesis at concentrations up to 100 μM
Nc1ccn([C@H]2CC[C@@H](CO)O2)c(=O)n1 [ddC]	strongly inhibit mitochondrial protein synthesis

tested on: HCV genotype 1b HCV replicon harbored in Huh7 cells; test: Combination testing in HCV replicon (MacSynergy II); type: cell-based; details: combination with compound 18, 72 h, MacSynergy II, Bliss independence model

Compound	Synergy Volume
COC(=O)N[C@H](C(=O)N1CCC[C@H]1c1nc(-c2ccc(-c3ccc(-c4c[nH]c([C@@H]5CCCN5C(=O)[C@@H](NC(=O)OC)C(C)C)n4)cc3)cc2)c[nH]1)C(C)C [BMS-790052 (4001)]	38.01 μM^2%
CCc1cc(CC[C@]2(C3CCCC3)CC(O)=C(Cc3nc4nc(C)cc(C)n4n3)C(=O)O2)cc(CC)n1 [Filibuvir (3007)]	23.51 μM^2%
CNC(=O)c1c(-c2ccc(F)cc2)oc2cc(N(CCO)S(C)(=O)=O)c(C3CC3)cc12 [HCV-796 (3004)]	81.72 μM^2%
NC(=O)c1ncn([C@@H]2O[C@H](CO)[C@@H](O)[C@H]2O)n1 [Ribavirin (5012), Ribavirin]	6.77 μM^2%
COc1ccc2c(O[C@@H]3C[C@H]4C(=O)N[C@]5(C(=O)NS(=O)(=O)C6CC6)C[C@H]5/C=C\CCCCN(C)C(=O)[C@@H]4C3)cc(-c3nc(C(C)C)cs3)nc2c1C [TMC-435 (1013)]	97.17 μM^2%
CC(C)(C)C#Cc1cc(N(C(=O)[C@H]2CC[C@H](C)CC2)[C@H]2CC[C@H](O)CC2)c(C(=O)O)s1 [VX-222 (3003)]	32.35 μM^2%
CCC[C@H](NC(=O)[C@@H]1[C@H]2CCC[C@H]2CN1C(=O)[C@@H](NC(=O)[C@@H](NC(=O)c1cnccn1)C1CCCCC1)C(C)(C)C)C(=O)C(=O)NC1CC1 [VX-950 (1001)]	32.28 μM^2%

same assay, conditions: combination with compound 18, class from synergy volume

Compound	Determination
COC(=O)N[C@H](C(=O)N1CCC[C@H]1c1nc(-c2ccc(-c3ccc(-c4c[nH]c([C@@H]5CCCN5C(=O)[C@@H](NC(=O)OC)C(C)C)n4)cc3)cc2)c[nH]1)C(C)C [BMS-790052 (4001)]	Synergistic (volumes in the 25-100 range indicate synergistic behavior)
CCc1cc(CC[C@]2(C3CCCC3)CC(O)=C(Cc3nc4nc(C)cc(C)n4n3)C(=O)O2)cc(CC)n1 [Filibuvir (3007)]	Additive (volumes in the −25-25 range indicate additive behavior)
CNC(=O)c1c(-c2ccc(F)cc2)oc2cc(N(CCO)S(C)(=O)=O)c(C3CC3)cc12 [HCV-796 (3004)]	Synergistic (volumes in the 25-100 range indicate synergistic behavior)
NC(=O)c1ncn([C@@H]2O[C@H](CO)[C@@H](O)[C@H]2O)n1 [Ribavirin (5012), Ribavirin]	Additive (volumes in the −25-25 range indicate additive behavior)
COc1ccc2c(O[C@@H]3C[C@H]4C(=O)N[C@]5(C(=O)NS(=O)(=O)C6CC6)C[C@H]5/C=C\CCCCN(C)C(=O)[C@@H]4C3)cc(-c3nc(C(C)C)cs3)nc2c1C [TMC-435 (1013)]	Synergistic (volumes in the 25-100 range indicate synergistic behavior)
CC(C)(C)C#Cc1cc(N(C(=O)[C@H]2CC[C@H](C)CC2)[C@H]2CC[C@H](O)CC2)c(C(=O)O)s1 [VX-222 (3003)]	Synergistic (volumes in the 25-100 range indicate synergistic behavior)
CCC[C@H](NC(=O)[C@@H]1[C@H]2CCC[C@H]2CN1C(=O)[C@@H](NC(=O)[C@@H](NC(=O)c1cnccn1)C1CCCCC1)C(C)(C)C)C(=O)C(=O)NC1CC1 [VX-950 (1001)]	Synergistic (volumes in the 25-100 range indicate synergistic behavior)

tested on: Huh-7 cells containing the self-replicating, subgenomic HCV replicon; test: HCV replicon assay (luciferase reporter); type: cell-based; details: Hepatitis C virus, Huh-7, 72 h

Compound	EC50
CC(C)OC(=O)[C@H](C)NP(=O)(OC[C@@]1(F)O[C@@H](n2ccc(=O)[nH]c2=O)[C@](C)(O)[C@@H]1O)Oc1ccccc1 (stereo partly drawn) [Compound 2]	< 1 µM
C[C@H](NP(=O)(OC[C@@]1(F)O[C@@H](n2ccc(=O)[nH]c2=O)[C@](C)(O)[C@@H]1O)Oc1ccccc1)C(=O)OC1CCCCC1 (stereo partly drawn) [Compound 3]	< 1 µM
C[C@H](NP(=O)(OC[C@@]1(F)O[C@@H](n2cnc3c(=O)[nH]c(N)nc32)[C@](C)(O)[C@@H]1O)Oc1ccccc1)C(=O)OC1CCCCC1 (stereo partly drawn) [Compound 11]	< 1 µM
CCOc1nc(N)nc2c1ncn2[C@@H]1O[C@](F)(COP(=O)(N[C@@H](C)C(=O)OC2CCCCC2)Oc2ccccc2)[C@@H](O)[C@@]1(C)O (stereo partly drawn) [Compound 16]	< 1 µM
CCOc1nc(N)nc2c1ncn2[C@@H]1O[C@](F)(COP(=O)(N[C@@H](C)C(=O)OCC(C)(C)C)Oc2ccccc2)[C@@H](O)[C@@]1(C)O (stereo partly drawn) [Compound 17]	< 1 µM
CC(C)OC(=O)C(C)N[P@](=O)(OC[C@@]1(F)O[C@@H](n2ccc(=O)[nH]c2=O)[C@](C)(O)[C@@H]1O)Oc1ccccc1 (stereo partly drawn) [Compound 18]	< 1 µM
CC(C)OC(=O)C(C)N[P@@](=O)(OC[C@@]1(F)O[C@@H](n2ccc(=O)[nH]c2=O)[C@](C)(O)[C@@H]1O)Oc1ccccc1 (stereo partly drawn) [Compound 19]	< 1 µM
CC(N[P@](=O)(OC[C@@]1(F)O[C@@H](n2ccc(=O)[nH]c2=O)[C@](C)(O)[C@@H]1O)Oc1ccccc1)C(=O)OC1CCCCC1 (stereo partly drawn) [Compound 20]	< 1 µM
CC(N[P@@](=O)(OC[C@@]1(F)O[C@@H](n2ccc(=O)[nH]c2=O)[C@](C)(O)[C@@H]1O)Oc1ccccc1)C(=O)OC1CCCCC1 (stereo partly drawn) [Compound 21]	< 1 µM
C#C[C@]1(O)[C@H](n2ccc(=O)[nH]c2=O)O[C@](F)(COP(=O)(N[C@@H](C)C(=O)OC2CCCCC2)Oc2ccccc2)[C@H]1O (stereo partly drawn) [Compound 22]	< 1 µM
CC(C)OC(=O)[C@H](C)NP(=O)(OC[C@@]1(F)O[C@@H](n2ccc(=O)[nH]c2=O)[C@](C)(O)[C@@H]1O)Oc1cccc2ccccc12 (stereo partly drawn) [Compound 54]	< 1 µM
CC(C)OC(=O)[C@H](C)NP(=O)(OC[C@@]1(F)O[C@@H](n2ccc(=O)[nH]c2=O)[C@](C)(O)[C@@H]1O)Oc1ccc(Cl)cc1 (stereo partly drawn) [Compound 56]	< 1 µM
CC(=O)O[C@H]1[C@@](C)(O)[C@H](n2ccc(=O)[nH]c2=O)O[C@]1(F)COP(=O)(N[C@@H](C)C(=O)OC(C)C)Oc1ccc(Cl)cc1 (stereo partly drawn) [Compound 57]	< 1 µM
CC(C)(C)C(=O)SCCCCOP(=O)(OCCCCSC(=O)C(C)(C)C)OC[C@@]1(F)O[C@@H](n2ccc(=O)[nH]c2=O)[C@](C)(O)[C@@H]1O [Compound 60]	10 to 100 µM
CC(C)OC(=O)[C@H](C)NP(=O)(OC[C@@]1(F)O[C@@H](n2ccc(=O)[nH]c2=O)[C@](C)(Cl)[C@@H]1O)Oc1ccccc1 (stereo partly drawn) [Compound 62]	< 1 µM
CCOc1nc(N)nc2c1ncn2[C@@H]1O[C@](F)(COP(=O)(N[C@@H](C)C(=O)OC2CCCCC2)Oc2ccccc2)[C@@H](O)[C@@]1(C)F (stereo partly drawn) [Compound 66]	< 1 µM

Compound	EC50
CCOC(=O)[C@H](C)NP(=O)(N[C@@H](C)C(=O)OCC)OC[C@@]1(F)O[C@@H](n2ccc(=O)[nH]c2=O)[C@](C)(O)[C@@H]1O [Compound 67]	1 to 10 µM
CC(C)OC(=O)[C@H](C)NP(=O)(N[C@@H](C)C(=O)OC(C)C)OC[C@@]1(F)O[C@@H](n2ccc(=O)[nH]c2=O)[C@](C)(O)[C@@H]1O [Compound 70]	1 to 10 µM
C=C=C[C@]1(O)[C@H](n2ccc(=O)[nH]c2=O)O[C@](F)(CO[P@@](=O)(N[C@@H](C)C(=O)OC(C)C)Oc2ccccc2)[C@H]1O [Compound 73]	1 to 10 µM
C=C[C@]1(O)[C@H](n2ccc(=O)[nH]c2=O)O[C@](F)(COP(=O)(N[C@@H](C)C(=O)OC(C)C)Oc2ccccc2)[C@H]1O (stereo partly drawn) [Compound 77]	1 to 10 µM
CCOc1nc(N)nc2c1ncn2[C@@H]1O[C@]2(F)COP(=O)(OCC)O[C@H]2[C@@]1(C)F (stereo partly drawn) [Compound 79]	< 1 µM
CCOc1nc(N)nc2c1ncn2[C@@H]1O[C@]2(F)COP(=O)(OCC(C)C)O[C@H]2[C@@]1(C)F (stereo partly drawn) [Compound 80]	1 to 10 µM
CCOc1nc(N)nc2c1ncn2[C@@H]1O[C@]2(F)COP(=O)(OC(C)C)O[C@H]2[C@@]1(C)F (stereo partly drawn) [Compound 81]	< 1 µM
CCOc1nc(N)nc2c1ncn2C1O[C@](F)(COP(=O)(N[C@@H](C)C(=O)OC(C)C)Oc2cccc3ccccc23)[C@@H](O)[C@@]1(C)F (stereo partly drawn) [Compound 83]	< 1 µM
CCOc1nc(N)nc2c1ncn2C1O[C@](F)(COP(=O)(N[C@@H](C)C(=O)OC(C)C)Oc2ccccc2)[C@@H](O)[C@@]1(C)F (stereo partly drawn) [Compound 85]	< 1 µM
CCOc1nc(N)nc2c1ncn2C1O[C@](F)(COP(=O)(N[C@@H](C)C(=O)OCC(C)C)Oc2ccccc2)[C@@H](O)[C@@]1(C)F (stereo partly drawn) [Compound 86]	< 1 µM
CCOc1nc(N)nc2c1ncn2[C@@H]1O[C@](F)(COP(=O)(N[C@@H](C)C(=O)OC2CCCC2)Oc2ccccc2)[C@@H](O)[C@@]1(C)F (stereo partly drawn) [Compound 87]	< 1 µM
CCOc1nc(N)nc2c1ncn2[C@@H]1O[C@](F)(COP(=O)(N[C@@H](C)C(=O)OC(CC)CC)Oc2ccccc2)[C@@H](O)[C@@]1(C)F (stereo partly drawn) [Compound 88]	< 1 µM
CCOc1nc(N)nc2c1ncn2[C@@H]1O[C@](F)(COP(=O)(N[C@@H](C)C(=O)OCC(C)(C)C)Oc2cccc3ncccc23)[C@@H](O)[C@@]1(C)F (stereo partly drawn) [Compound 89]	< 1 µM
CCOc1nc(N)nc2c1ncn2[C@@H]1O[C@](F)(COP(=O)(N[C@@H](C)C(=O)OCC(C)(C)C)Oc2cccc3ccccc23)[C@@H](O)[C@@]1(C)F (stereo partly drawn) [Compound 90]	< 1 µM
CCOc1nc(N)nc2c1ncn2[C@@H]1O[C@](F)(COP(=O)(N[C@@H](C)C(=O)OCC(C)(C)C)Oc2ccccc2)[C@@H](O)[C@@]1(C)F (stereo partly drawn) [Compound 91]	< 1 µM

same assay, conditions: Hepatitis C virus, Huh-7; HCV replicon cells, 72 h, Bright-Glo luciferase; read-out: EC50

Compound	EC50
CCOc1nc(N)nc2c1ncn2[C@@H]1O[C@]2(F)CO[P@](=O)(OC(C)C)O[C@H]2[C@@]1(C)F [Compound 42]	< 1 µM
CC(C)OC(=O)OCOP(=O)(OCOC(=O)OC(C)C)OC[C@@]1(F)O[C@@H](n2ccc(=O)[nH]c2=O)[C@](C)(F)[C@@H]1O [Compound 61]	< 1 µM

same assay, conditions: read-out: EC50

Compound	EC50
C#C[C@]1(O)[C@H](n2cnc3c(OCC)nc(N)nc32)O[C@](F)(CO[P@](=O)(N[C@@H](C)C(=O)OC2CCCCC2)Oc2ccccc2)[C@H]1O [Compound 34]	< 1 µM
C#C[C@]1(O)[C@H](n2cnc3c(OCC)nc(N)nc32)O[C@](F)(CO[P@@](=O)(N[C@@H](C)C(=O)OC2CCCCC2)Oc2ccccc2)[C@H]1O [Compound 35]	< 1 µM

biological target: human mitochondrial RNA polymerase (Homo sapiens (Human), UniProt O00411); test: DdRp assay: incorporation of nucleotides by human mitochondrial RNA polymerase (HMRP); details: 100 μM NTP, single turnover, product band on gel
Sequence (O00411 42-1230): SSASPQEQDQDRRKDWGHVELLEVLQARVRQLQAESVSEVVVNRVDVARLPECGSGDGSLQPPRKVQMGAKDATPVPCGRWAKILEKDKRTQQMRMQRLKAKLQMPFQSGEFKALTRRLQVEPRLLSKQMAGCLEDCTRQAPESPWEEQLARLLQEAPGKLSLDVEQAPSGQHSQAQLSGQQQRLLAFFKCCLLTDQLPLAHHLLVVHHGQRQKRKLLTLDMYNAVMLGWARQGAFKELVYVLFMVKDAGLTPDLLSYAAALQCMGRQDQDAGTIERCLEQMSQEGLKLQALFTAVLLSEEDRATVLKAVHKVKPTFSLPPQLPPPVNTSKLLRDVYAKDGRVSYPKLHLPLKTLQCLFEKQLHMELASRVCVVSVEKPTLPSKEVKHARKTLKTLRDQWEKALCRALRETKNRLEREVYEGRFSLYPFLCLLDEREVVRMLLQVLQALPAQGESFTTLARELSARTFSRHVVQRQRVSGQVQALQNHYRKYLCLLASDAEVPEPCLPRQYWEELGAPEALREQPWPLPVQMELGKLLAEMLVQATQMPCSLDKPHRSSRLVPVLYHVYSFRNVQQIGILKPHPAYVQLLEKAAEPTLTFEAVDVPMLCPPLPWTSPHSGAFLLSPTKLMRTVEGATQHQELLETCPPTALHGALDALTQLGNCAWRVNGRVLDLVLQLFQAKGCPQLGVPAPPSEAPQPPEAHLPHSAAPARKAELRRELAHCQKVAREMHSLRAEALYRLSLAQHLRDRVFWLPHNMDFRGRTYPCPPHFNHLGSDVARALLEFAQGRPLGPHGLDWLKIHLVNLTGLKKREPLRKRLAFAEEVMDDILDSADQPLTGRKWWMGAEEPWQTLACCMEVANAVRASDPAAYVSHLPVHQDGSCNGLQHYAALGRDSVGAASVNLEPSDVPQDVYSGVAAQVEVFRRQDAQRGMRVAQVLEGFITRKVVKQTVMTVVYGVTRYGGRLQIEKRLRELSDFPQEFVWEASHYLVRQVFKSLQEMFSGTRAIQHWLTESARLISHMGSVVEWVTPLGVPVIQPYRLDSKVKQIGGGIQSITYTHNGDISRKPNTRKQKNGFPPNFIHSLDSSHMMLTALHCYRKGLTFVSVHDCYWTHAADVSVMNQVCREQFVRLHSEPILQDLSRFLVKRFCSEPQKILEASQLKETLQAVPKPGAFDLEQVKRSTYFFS

Compound	incorporation by HMRP (template for UTP analogs, FIG. 10)	incorporation by HMRP (template for GTP analogs, FIG. 11)
C[C@@]1(F)[C@H](O)[C@@H](COP(=O)(O)OP(=O)(O)OP(=O)(O)O)O[C@H]1n1ccc(=O)[nH]c1=O [2′-Me-2′-F-UTP]	not efficient substrates for incorporation by HMRP	
Nc1ncnc2c1ncn2[C@@H]1O[C@H](COP(=O)(O)OP(=O)(O)OP(=O)(O)O)[C@@H](O)[C@H]1O [ATP]		poor substrate for incorporation
